Where two headings read alike, the source gives them in different places.
Key:
[1] = test system: forty-four human cancer cell lines; assay: Cell proliferation assay (ATPlite, 72 hours) in the 44 cell line Oncolines panel; type: cell-based; conditions: Homo sapiens
[2] = target: T1, panel of more than 300 wild-type and mutant kinases (313 kinase panel) (Homo sapiens, UniProt O14920); assay: Kinase profiling in a biochemical assay panel (mobility shift assays and ELISA), %-inhibition at 1 μM; selectivity entropy
T1 sequence (O14920 1-756): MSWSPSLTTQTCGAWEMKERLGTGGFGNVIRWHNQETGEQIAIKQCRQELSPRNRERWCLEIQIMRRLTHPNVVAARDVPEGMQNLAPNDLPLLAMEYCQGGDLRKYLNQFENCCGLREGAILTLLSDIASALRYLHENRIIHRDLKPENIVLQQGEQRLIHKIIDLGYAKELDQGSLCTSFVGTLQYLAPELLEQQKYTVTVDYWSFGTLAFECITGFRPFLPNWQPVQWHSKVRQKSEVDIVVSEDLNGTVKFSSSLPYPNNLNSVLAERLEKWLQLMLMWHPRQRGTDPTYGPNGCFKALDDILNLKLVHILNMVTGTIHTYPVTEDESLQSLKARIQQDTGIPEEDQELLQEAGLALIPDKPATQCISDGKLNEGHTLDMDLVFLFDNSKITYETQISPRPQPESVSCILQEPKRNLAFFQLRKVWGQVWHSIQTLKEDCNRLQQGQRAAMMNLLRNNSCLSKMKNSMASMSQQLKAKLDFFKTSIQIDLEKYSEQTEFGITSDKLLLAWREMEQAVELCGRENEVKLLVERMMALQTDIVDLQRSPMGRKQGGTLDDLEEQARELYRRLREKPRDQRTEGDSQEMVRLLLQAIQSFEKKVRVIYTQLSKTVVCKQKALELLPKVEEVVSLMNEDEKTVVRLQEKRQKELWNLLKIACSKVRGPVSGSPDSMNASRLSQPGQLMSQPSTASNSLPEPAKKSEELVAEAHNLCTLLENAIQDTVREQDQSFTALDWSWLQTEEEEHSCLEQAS

[3] = target: panel of more than 300 wild-type and mutant kinases (313 kinase panel) (Homo sapiens, UniProt O95819); assay: as above; conditions: kinase HGK; compound at 1 μM
[4] = target: panel of more than 300 wild-type and mutant kinases (313 kinase panel) (Homo sapiens, UniProt P29376); assay: as above; conditions: kinase LTK; compound at 1 μM
[5] = target: panel of more than 300 wild-type and mutant kinases (313 kinase panel) (Homo sapiens, UniProt Q15303); assay: as above
[6] = target: panel of more than 300 wild-type and mutant kinases (313 kinase panel) (Homo sapiens, UniProt Q16288); assay: as above; conditions: kinase TRKC; 1 μM
[7] = target: T2, panel of more than 300 wild-type and mutant kinases (313 kinase panel) (Homo sapiens, UniProt Q96PF2); assay: as above; conditions: kinase TSSK2; 1 μM
T2 sequence (Q96PF2 1-358): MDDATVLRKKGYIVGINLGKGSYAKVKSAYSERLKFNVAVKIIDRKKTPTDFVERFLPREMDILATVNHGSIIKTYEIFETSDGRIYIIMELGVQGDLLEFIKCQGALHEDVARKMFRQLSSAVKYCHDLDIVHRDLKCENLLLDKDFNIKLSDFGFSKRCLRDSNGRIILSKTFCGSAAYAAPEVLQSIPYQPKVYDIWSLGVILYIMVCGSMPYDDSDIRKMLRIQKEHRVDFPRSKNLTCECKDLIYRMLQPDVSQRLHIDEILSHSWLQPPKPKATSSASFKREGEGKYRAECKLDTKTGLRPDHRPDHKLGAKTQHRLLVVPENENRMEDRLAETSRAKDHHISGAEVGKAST

[8] = target: panel of more than 300 wild-type and mutant kinases (313 kinase panel) (Homo sapiens, UniProt Q9H1R3); assay: as above; conditions: kinase skMLCK; 1 μM
[9] = target: panel of more than 300 wild-type and mutant kinases (313 kinase panel) (Homo sapiens, UniProt Q13177); assay: as above; conditions: kinase PAK2; 1 μM
[10] = target: panel of more than 300 wild-type and mutant kinases (313 kinase panel) (Homo sapiens, UniProt Q9H2G2); assay: as above; conditions: kinase SLK; 1 μM
[11] = 4-4 cell, read-out: cell panel IC50, J82
[12] = 4-4 cell, read-out: cell panel IC50, PA-1
[13] = 4-4 cell, read-out: cell panel IC50, SJCRH30
[14] = 4-4 cell, read-out: cell panel IC50, SR
[15] = 769-P, read-out: cell panel IC50, 769-P
[16] = 786-0, read-out: cell panel IC50, 786-0
[17] = A 172, read-out: cell panel IC50, A-172
[18] = A204, read-out: cell panel IC50, A-204
[19] = A498, read-out: cell panel IC50, A-498
[20] = A549, read-out: cell panel IC50, A-549
[21] = A-375, read-out: cell panel IC50, A375
[22] = A-427, read-out: cell panel IC50, A-427
[23] = AN3-CA, read-out: cell panel IC50, AN3 CA
[24] = AU565, read-out: cell panel IC50, AU-565
[25] = BT-20, read-out: cell panel IC50, BT-20
[26] = BT-549, read-out: cell panel IC50, BT-549
[27] = BXPC-3, read-out: cell panel IC50, BxPC-3
[28] = C-33-A, read-out: cell panel IC50, C-33 A
[29] = CAL-27, read-out: cell panel IC50, CAL 27
[30] = CCRF-CEM, read-out: cell panel IC50, CCRF-CEM
[31] = DLD-1, read-out: cell panel IC50, DLD-1
[32] = FaDu, read-out: cell panel IC50, FaDu
[33] = HCT-15, read-out: cell panel IC50, HCT-15
[34] = HCT-116, read-out: cell panel IC50, HCT-116
[35] = Hs-578T, read-out: cell panel IC50, Hs 578T
[36] = Jurkat E6.1, read-out: cell panel IC50, Jurkat E6.1
[37] = K562, read-out: cell panel IC50, K-562
[38] = LS174T, read-out: cell panel IC50, LS 174T
[39] = LoVo, read-out: cell panel IC50, LoVo
[40] = MG-63, read-out: cell panel IC50, MG-63
[41] = MOLT-4, read-out: cell panel IC50, MOLT-4
[42] = MeWo, read-out: cell panel IC50, MeWo
[43] = NCI-H82, read-out: cell panel IC50, NCI-H82
[44] = NCI-H460, read-out: cell panel IC50, NCI-H460
[45] = OVCAR-3, read-out: cell panel IC50, OVCAR-3
[46] = RPMI-7951, read-out: cell panel IC50, RPMI-7951
[47] = SHP77, read-out: cell panel IC50, SHP-77
[48] = SK-N-AS, read-out: cell panel IC50, SK-N-AS
[49] = SW48, read-out: cell panel IC50, SW48
[50] = SW480, read-out: cell panel IC50, SW480
[51] = SW-620, read-out: cell panel IC50, SW620
[52] = U2OS, read-out: cell panel IC50, U-2 OS
[53] = U-87 MG, 72 h, read-out: IC50 in cell proliferation assay (table S5 cellpanel data)

Chain of panel of more than 300 wild-type and mutant kinases (313 kinase panel) (Homo sapiens, UniProt Q15303) (Q15303 26-1308, change not shown): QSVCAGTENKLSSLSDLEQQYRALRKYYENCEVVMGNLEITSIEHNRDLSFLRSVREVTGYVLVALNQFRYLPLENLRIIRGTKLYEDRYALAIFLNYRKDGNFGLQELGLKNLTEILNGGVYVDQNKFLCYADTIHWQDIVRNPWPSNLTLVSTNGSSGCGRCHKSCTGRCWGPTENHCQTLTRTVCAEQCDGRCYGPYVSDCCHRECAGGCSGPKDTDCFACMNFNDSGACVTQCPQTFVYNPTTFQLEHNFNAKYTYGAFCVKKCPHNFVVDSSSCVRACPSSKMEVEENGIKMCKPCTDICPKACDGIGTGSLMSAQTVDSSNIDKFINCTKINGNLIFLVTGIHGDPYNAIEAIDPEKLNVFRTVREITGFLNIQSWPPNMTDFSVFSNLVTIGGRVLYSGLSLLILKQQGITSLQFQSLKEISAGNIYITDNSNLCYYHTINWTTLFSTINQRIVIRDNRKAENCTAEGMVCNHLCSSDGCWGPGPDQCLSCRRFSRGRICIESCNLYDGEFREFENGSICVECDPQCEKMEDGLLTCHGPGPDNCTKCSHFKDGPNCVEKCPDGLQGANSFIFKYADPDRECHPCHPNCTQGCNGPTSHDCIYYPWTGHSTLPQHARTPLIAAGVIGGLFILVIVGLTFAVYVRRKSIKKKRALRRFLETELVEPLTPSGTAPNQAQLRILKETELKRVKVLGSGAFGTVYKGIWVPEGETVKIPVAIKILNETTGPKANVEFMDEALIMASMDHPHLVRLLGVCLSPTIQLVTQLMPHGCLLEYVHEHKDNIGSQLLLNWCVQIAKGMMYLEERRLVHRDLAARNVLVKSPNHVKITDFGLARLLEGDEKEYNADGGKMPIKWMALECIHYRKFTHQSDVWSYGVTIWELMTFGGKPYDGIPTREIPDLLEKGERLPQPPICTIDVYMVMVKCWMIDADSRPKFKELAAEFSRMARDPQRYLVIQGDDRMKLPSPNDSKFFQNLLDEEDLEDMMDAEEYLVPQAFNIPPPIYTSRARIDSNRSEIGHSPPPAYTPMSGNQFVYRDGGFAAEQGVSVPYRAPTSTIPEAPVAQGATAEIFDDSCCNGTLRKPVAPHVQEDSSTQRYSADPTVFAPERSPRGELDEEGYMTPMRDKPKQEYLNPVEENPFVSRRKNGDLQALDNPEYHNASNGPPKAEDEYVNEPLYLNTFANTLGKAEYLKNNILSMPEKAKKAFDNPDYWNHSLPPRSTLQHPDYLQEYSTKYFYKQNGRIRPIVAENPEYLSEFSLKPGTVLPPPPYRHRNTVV

`Cc1ccc(C(=O)Nc2ccc(CN3CCN(C)CC3)c(C(F)(F)F)c2)cc1C#Cc1cnc2cccnn12` [ponatinib] gave an IC50 [1, 11] of 1.53 µM, an IC50 [1, 12] of 0.814 µM and an IC50 [1, 13] of 1.11 µM. It also gave an IC50 [1, 14] of 0.836 µM, an IC50 [1, 15] of 1.8 µM and an IC50 [1, 16] of 1.87 µM. For the same molecule, the IC50 [1, 17] was 0.626 µM, the IC50 [1, 18] was 0.092 µM and the IC50 [1, 19] was 1.32 µM. For the same molecule, the IC50 [1, 20] was 1.15 µM, the IC50 [1, 21] was 1.14 µM and the IC50 [1, 22] was 0.352 µM. It also gave an IC50 [1, 23] of 0.124 µM, an IC50 [1, 24] of 1.42 µM and an IC50 [1, 25] of 5.12 µM. The IC50 [1, 26] was 1.85 µM, the IC50 [1, 27] was 0.817 µM and the IC50 [1, 28] was 1 µM. It also gave an IC50 [1, 29] of 1.73 µM, an IC50 [1, 30] of 2.25 µM and an IC50 [1, 31] of 1.13 µM. For the same molecule, the IC50 [1, 32] was 1.11 µM, the IC50 [1, 33] was 0.913 µM and the IC50 [1, 34] was 1.21 µM. The IC50 [1, 35] was 1.18 µM, the IC50 [1, 36] was 0.403 µM and the IC50 [1, 37] was 0.0065 µM. It also gave an IC50 [1, 38] of 2.05 µM, an IC50 [1, 39] of 0.38 µM and an IC50 [1, 40] of 2.48 µM. It also gave an IC50 [1, 41] of 0.977 µM, an IC50 [1, 42] of 2.22 µM and an IC50 [1, 43] of 1.1 µM. It also gave an IC50 [1, 44] of 1.43 µM, an IC50 [1, 45] of 2.95 µM and an IC50 [1, 46] of 1.15 µM. It also gave an IC50 [1, 47] of 6.49 µM, an IC50 [1, 48] of 1.08 µM and an IC50 [1, 49] of 1.55 µM. It also gave an IC50 [1, 50] of 2.17 µM, an IC50 [1, 51] of 0.799 µM and an IC50 [1, 52] of 1.11 µM. The IC50 [1, 53] was 3.1 µM, the “%-inhibition of IKKβ” value ([2]; kinase IKKβ, compound at 1 μM) was 46% and the “%-inhibition of HGK” value [3] was 92%. For the same molecule, the “%-inhibition of LTK” value [4] was 85%, the “%-inhibition of HER4” value ([5]; kinase HER4, compound at 1 μM) was 101% and the “%-inhibition of TRKC” value [6] was 103%. For the same molecule, the “%-inhibition of TSSK2” value [7] was -8% and the “%-inhibition of skMLCK” value [8] was 36%.
With `N#CC[C@H](C1CCCC1)n1cc(-c2ncnc3[nH]ccc23)cn1` [ruxolitinib] the IC50 [1, 11] was > 31.6 µM, the IC50 [1, 12] was 26.9 µM and the IC50 [1, 13] was 25.4 µM. The IC50 [1, 14] was 4.44 µM, the IC50 [1, 15] was 18.4 µM and the IC50 [1, 16] was > 31.6 µM. The IC50 [1, 17] was 31.5 µM, the IC50 [1, 18] was > 31.6 µM and the IC50 [1, 19] was > 31.6 µM. The IC50 [1, 20] was 21.9 µM, the IC50 [1, 21] was > 31.6 µM and the IC50 [1, 22] was 11.7 µM. The IC50 ([1]; ACHN, read-out: cell panel IC50, ACHN) was > 31.6 µM, the IC50 [1, 23] was 9.88 µM and the IC50 [1, 24] was 28.3 µM. The IC50 [1, 25] was > 31.6 µM, the IC50 [1, 26] was > 31.6 µM and the IC50 [1, 27] was 16.2 µM. For the same molecule, the IC50 [1, 28] was 9.4 µM, the IC50 [1, 29] was > 31.6 µM and the IC50 [1, 30] was 29 µM. For the same molecule, the IC50 [1, 31] was 31.1 µM, the IC50 [1, 32] was > 31.6 µM and the IC50 [1, 33] was 25.3 µM. The IC50 [1, 34] was 30 µM, the IC50 [1, 35] was > 31.6 µM and the IC50 [1, 36] was 21.5 µM. The IC50 [1, 37] was 26.4 µM, the IC50 [1, 38] was 30.8 µM and the IC50 [1, 39] was 24.4 µM. For the same molecule, the IC50 [1, 40] was 26.2 µM, the IC50 [1, 41] was 21.8 µM and the IC50 [1, 42] was > 31.6 µM. The IC50 [1, 43] was 21 µM, the IC50 [1, 44] was 27 µM and the IC50 [1, 45] was > 31.6 µM. The IC50 [1, 46] was 15.6 µM, the IC50 [1, 47] was 31.2 µM and the IC50 [1, 48] was 21.1 µM. For the same molecule, the IC50 [1, 49] was 19.5 µM, the IC50 [1, 50] was > 31.6 µM and the IC50 [1, 51] was 28.4 µM. For the same molecule, the IC50 [1, 52] was 25.1 µM, the IC50 [1, 53] was > 31.6 µM and the “%-inhibition of IKKβ” value ([2]; 1 µM) was 2.26%. The “%-inhibition of HGK” value [3] was 1.09%, the “%-inhibition of LTK” value [4] was 97% and the “%-inhibition of PAK2” value [9] was 3.37%. The “%-inhibition of HER4” value ([5]; 1 µM) was -1.9%, the “%-inhibition of TSSK2” value [7] was -10% and the “%-inhibition of skMLCK” value [8] was -4.71%. For the same molecule, the “%-inhibition of SLK” value [10] was 7%.

— publication PMC3961306, “Comparison of the Cancer Gene Targeting and Biochemical Selectivities of All Targeted Kinase Inhibitors Approved for Clinical Use” (PLoS ONE, 2014)
